For 23 compounds, activity coefficient results are on record in the NIST ThermoML archive (doi:10.1021/je050134y).

The structures appear in SMILES notation. ± gives the expanded uncertainty stated by the source.

The nature of the series: activity coefficient (dimensionless); of the first substance listed, at infinite dilution; xn = mol fraction of the nth substance listed. As to conditions: 298 K; 101.3 kPa; Liquid; Chromatography; x1 = 0.
Consider `CCCCCCCCCCC` [undecane] + CCCCCCCC[n+]1ccn(C)c1.F[B-](F)(F)F, for which the activity coefficient was found to be 60.9 ± 4.2.
For the compound `C=CCCCCCC` [oct-1-ene] + CCCCCCCC[n+]1ccn(C)c1.F[B-](F)(F)F, the activity coefficient worked out at 13.1 ± 0.9.
Turning to `CCCCCCCCCCCC` [dodecane] + CCCCCCCC[n+]1ccn(C)c1.F[B-](F)(F)F, the activity coefficient was 77.9 ± 5.3.
The figure for `CCCCCCC` [heptane] + CCCCCCCC[n+]1ccn(C)c1.F[B-](F)(F)F is 16 ± 1.1.
The figure for `C=CCCCCCCCC` [1-decene] + CCCCCCCC[n+]1ccn(C)c1.F[B-](F)(F)F is 21.4 ± 1.5; for `CCCCCCCCC` [nonane] + CCCCCCCC[n+]1ccn(C)c1.F[B-](F)(F)F it is 28.4 ± 1.9.
With `C=CCCCCCCCCC` [1-undecene] + CCCCCCCC[n+]1ccn(C)c1.F[B-](F)(F)F, the activity coefficient was found to be 25.8 ± 1.8.
Consider `C=CCCCCC` [1-heptene] + CCCCCCCC[n+]1ccn(C)c1.F[B-](F)(F)F, for which the activity coefficient was found to be 9.76 ± 0.67.
On to `C=CCCCC` [hex-1-ene] + CCCCCCCC[n+]1ccn(C)c1.F[B-](F)(F)F, for which the activity coefficient worked out at 7.06 ± 0.48.
With `CCCCCO` [pentan-1-ol] + CCCCCCCC[n+]1ccn(C)c1.F[B-](F)(F)F the figure was 2.38 ± 0.16; with `CO` [methanol] + CCCCCCCC[n+]1ccn(C)c1.F[B-](F)(F)F, 1.07 ± 0.07.
With `CCCCCC` [hexane] + CCCCCCCC[n+]1ccn(C)c1.F[B-](F)(F)F the figure was 12.4 ± 0.8.
With `CCO` [ethanol] + CCCCCCCC[n+]1ccn(C)c1.F[B-](F)(F)F the figure was 1.75 ± 0.12; with `C=CCCCCCCCCCC` [1-dodecene] + CCCCCCCC[n+]1ccn(C)c1.F[B-](F)(F)F, 32.7 ± 2.2; with `C=CCCCCCCC` [1-nonene] + CCCCCCCC[n+]1ccn(C)c1.F[B-](F)(F)F, 16.5 ± 1.1.
Take `CCCCCCCCCC` [decane] + CCCCCCCC[n+]1ccn(C)c1.F[B-](F)(F)F: the activity coefficient is 36.4 ± 2.5.
Regarding `CCCCC` [pentane] + CCCCCCCC[n+]1ccn(C)c1.F[B-](F)(F)F, the activity coefficient came to 9.07 ± 0.62.
`C=CCCC` [1-pentene] + CCCCCCCC[n+]1ccn(C)c1.F[B-](F)(F)F: the activity coefficient was 5.08 ± 0.35.
With `CCCCCCCC` [octane] + CCCCCCCC[n+]1ccn(C)c1.F[B-](F)(F)F, the activity coefficient was found to be 22 ± 1.5.
For the compound `CCCCCCO` [hexan-1-ol] + CCCCCCCC[n+]1ccn(C)c1.F[B-](F)(F)F, the activity coefficient worked out at 2.58 ± 0.18.
For `CCCO` [propan-1-ol] + CCCCCCCC[n+]1ccn(C)c1.F[B-](F)(F)F, the activity coefficient turned out to be 2.18 ± 0.15.
With `CCCCO` [butan-1-ol] + CCCCCCCC[n+]1ccn(C)c1.F[B-](F)(F)F the figure was 2.32 ± 0.16; with `C1=CCCC=C1` [1,3-cyclohexadiene] + CCCCCCCC[n+]1ccn(C)c1.F[B-](F)(F)F, 2.69 ± 0.18.
